Source: PubChem BioAssay AID248 (DTP/NCI, 2004)
“And” between values parts separate entries of the source, which are not always exact repeats. Equal entries are not always repeated. Inconclusive results and toxic doses are left out. Cut-off read from the data, not from the text of the source: active = T/C of 150% or more; inactive = T/C below 125%.

Tested on: L1210 leukemia ip in BDF1 mice, survival T/C
Experiment: NCI In Vivo Anticancer Drug Screen. Data for tumor model L1210 Leukemia (intraperitoneal) in B6D2F1 (BDF1) mice
Conditions: endpoint: mean survival time, higher = longer survival
In short: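 Mice bearing the transplanted tumor received compound or vehicle. Survival of the treated group was divided by that of the vehicle-treated control group to give the ratio.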

[1] = dose: 25.0 mg/kg/injection, schedule: Q01DX009 (ip), vehicle: saline
[2] = dose: 50.0 mg/kg/injection, schedule: Q01DX009 (ip), vehicle: saline
[3] = dose: 100.0 mg/kg/injection, schedule: Q01DX009 (ip), vehicle: saline
[4] = dose: 100.0 mg/kg/injection, schedule: Q04DX003 (ip), vehicle: saline
[5] = dose: 200.0 mg/kg/injection, schedule: Q04DX003 (ip), vehicle: saline
[6] = dose: 100.0 mg/kg/injection, schedule: Q04DX003 (ip), vehicle: saline with Tween-80
[7] = dose: 200.0 mg/kg/injection, schedule: Q04DX003 (ip), vehicle: saline with Tween-80
[8] = dose: 400.0 mg/kg/injection, schedule: Q04DX003 (ip), vehicle: saline with Tween-80
[9] = dose: 200.0 mg/kg/injection, schedule: Q01DX009 (ip), vehicle: saline
[10] = dose: 200.0 mg/kg/injection, schedule: Q01DX009 (ip), vehicle: other
[11] = dose: 50.0 mg/kg/injection, schedule: Q01DX001 (ip), vehicle: saline
[12] = dose: 100.0 mg/kg/injection, schedule: Q01DX009 (ip), vehicle: saline with Tween-80
[13] = dose: 200.0 mg/kg/injection, schedule: Q01DX009 (ip), vehicle: saline with Tween-80
[14] = dose: 400.0 mg/kg/injection, schedule: Q01DX009 (ip), vehicle: saline with Tween-80
[15] = dose: 100.0 mg/kg/injection, schedule: Q04DX002 (ip), vehicle: Klucel (hydroxypropylcellulose) (HPC)
[16] = dose: 200.0 mg/kg/injection, schedule: Q04DX002 (ip), vehicle: Klucel (hydroxypropylcellulose) (HPC)
[17] = dose: 100.0 mg/kg/injection, schedule: Q01DX001 (ip), vehicle: saline
[18] = dose: 200.0 mg/kg/injection, schedule: Q01DX001 (ip), vehicle: saline
[19] = dose: 400.0 mg/kg/injection, schedule: Q01DX001 (ip), vehicle: saline
[20] = dose: 100.0 mg/kg/injection, schedule: Q04DX003 (ip), vehicle: Klucel (hydroxypropylcellulose) (HPC)
[21] = dose: 200.0 mg/kg/injection, schedule: Q04DX003 (ip), vehicle: Klucel (hydroxypropylcellulose) (HPC)
[22] = dose: 400.0 mg/kg/injection, schedule: Q04DX003 (ip), vehicle: Klucel (hydroxypropylcellulose) (HPC)
[23] = dose: 25.0 mg/kg/injection, schedule: Q04DX002 (ip), vehicle: Klucel (hydroxypropylcellulose) (HPC)
[24] = dose: 50.0 mg/kg/injection, schedule: Q04DX002 (ip), vehicle: Klucel (hydroxypropylcellulose) (HPC)

Measured: T/C

O=C(O)C1=CCC=CC1C(=O)O (stereo unspecified)
inactive: [1] 93 % of control | [2] 95 % of control | [3] 98 % of control | [4] 95 % of control | [5] 93 % of control

CCCCCCCCCC(=O)N(C)OC
inactive: [6] 87 % of control | [7] 88 % of control | [8] 92 % of control

COc1ccc(C(=O)C(O)O)cc1
inactive: [3] 100 % of control | [4] 103 % of control | [9] 96 % of control | [5] 98 % of control | dose: 400.0 mg/kg/injection, schedule: Q01DX009 (ip), vehicle: saline 112 % of control | dose: 400.0 mg/kg/injection, schedule: Q04DX003 (ip), vehicle: saline 103 % of control

Nc1nc2c(ncn2C2OC(COP(=O)(O)O)C(O)C2O)c(=O)[nH]1 (stereo unspecified)
inactive: dose: 100.0 mg/kg/injection, schedule: Q01DX005 (ip), vehicle: saline 100 % of control | [3] 101 % of control | dose: 200.0 mg/kg/injection, schedule: Q01DX005 (ip), vehicle: saline 112 % of control | [9] 95 % of control

CC(=O)Oc1ccc2c(c1)C(=O)CCC=C2
inactive: dose: 50.0 mg/kg/injection, schedule: Q01DX009 (ip), vehicle: other 92 % of control | [10] 92 % of control

C[N+](C)(C)Cc1cccc([N+](=O)[O-])c1
inactive: dose: 12.0 mg/kg/injection, schedule: Q01DX009 (ip), vehicle: saline 90 % of control | [1] 92 % of control | [11] 98 % of control | [2] 93 % of control

O=C1c2ccccc2-c2c1nc1ccccc1[n+]2[O-]
inactive: dose: 75.0 mg/kg/injection, schedule: Q01DX001 (ip), vehicle: saline sonified 89 % of control | dose: 150.0 mg/kg/injection, schedule: Q01DX001 (ip), vehicle: saline sonified 92 % of control | dose: 300.0 mg/kg/injection, schedule: Q01DX001 (ip), vehicle: saline sonified 92 % of control

O=C1CC(c2ccccn2)=NN1c1ccccc1
inactive: [6] 98 % of control | [7] 94 % of control | [8] 91 % of control

Cc1cc(N(CCOS(C)(=O)=O)CCOS(C)(=O)=O)ccc1C=Nc1ccc2ccccc2c1
inactive: dose: 13.3 mg/kg/injection, schedule: Q04DX003 (ip), vehicle: Klucel (hydroxypropylcellulose) (HPC) 116 % of control | dose: 20.0 mg/kg/injection, schedule: Q04DX003 (ip), vehicle: Klucel (hydroxypropylcellulose) (HPC) 108 % of control and 117 % of control | dose: 80.0 mg/kg/injection, schedule: Q04DX003 (ip), vehicle: Klucel (hydroxypropylcellulose) (HPC) 112 % of control

CCCCNC(=O)Nc1ccc(N(CC)CC)cc1
inactive: [12] 101 % of control | [6] 94 % of control | [13] 88 % of control | [7] 97 % of control | [14] 90 % of control | [8] 100 % of control

NC(CSC(c1ccccc1)(c1ccccc1)c1ccc(-c2ccccc2)cc1)C(=O)O (stereo unspecified)
inactive: dose: 12.5 mg/kg/injection, schedule: Q01DX009 (ip), vehicle: saline 103 % of control | [1] 104 % of control | [2] 107 % of control

CC1(c2cccc([N+](=O)[O-])c2)OCCO1
inactive: dose: 100.0 mg/kg/injection, schedule: Q01DX009 (ip), vehicle: other 100 % of control | dose: 100.0 mg/kg/injection, schedule: Q04DX003 (ip), vehicle: other 103 % of control | [10] 98 % of control | dose: 200.0 mg/kg/injection, schedule: Q04DX003 (ip), vehicle: other 104 % of control | dose: 400.0 mg/kg/injection, schedule: Q01DX009 (ip), vehicle: other 104 % of control | dose: 400.0 mg/kg/injection, schedule: Q04DX003 (ip), vehicle: other 100 % of control

CCOc1ccc(/C=C2\N=C(c3cc(OC)c(OC)c(OC)c3)OC2=O)cc1
inactive: [12] 102 % of control | [15] 96 % of control | [13] 123 % of control | [16] 86 % of control | [14] 108 % of control | dose: 400.0 mg/kg/injection, schedule: Q04DX002 (ip), vehicle: Klucel (hydroxypropylcellulose) (HPC) 96 % of control

O=C(Nc1ccc(Cl)cc1)OCCN(CCOC(=O)Nc1ccc(Cl)cc1)Cc1ccccc1
inactive: [17] 101 % of control | [18] 95 % of control | [19] 95 % of control

CSc1ccc(/C=N/NC(N)=S)c(SC)n1
inactive: [20] 98 % of control | [21] 98 % of control | [22] 96 % of control

Cc1ccccc1NC(=O)c1ccc([N+](=O)[O-])cc1
inactive: [12] 106 % of control | [6] 98 % of control | [13] 101 % of control | [7] 94 % of control | [14] 101 % of control | [8] 98 % of control

Nc1ccc2cc3ccc(N)cc3nc2c1
inactive: [11] 120 % of control

COc1ccc(C(=O)C=C(C(F)(F)F)C(F)(F)F)cc1
inactive: dose: 25.0 mg/kg/injection, schedule: Q04DX003 (ip), vehicle: saline with Tween-80 93 % of control | dose: 50.0 mg/kg/injection, schedule: Q04DX003 (ip), vehicle: saline with Tween-80 102 % of control | [6] 100 % of control and 102 % of control

Fc1c(F)c(F)[c]([Sn]([c]2ccccc2)([c]2ccccc2)[c]2ccccc2)c(F)c1F
inactive: dose: 1.56 mg/kg/injection, schedule: Q01DX009 (ip), vehicle: saline with Tween-80 102 % of control | dose: 3.13 mg/kg/injection, schedule: Q01DX009 (ip), vehicle: saline with Tween-80 94 % of control | dose: 6.25 mg/kg/injection, schedule: Q01DX009 (ip), vehicle: saline with Tween-80 92 % of control

O=[N+]([O-])c1cc(Br)cc(Br)c1O
inactive: [23] 109 % of control | [24] 98 % of control | [15] 98 % of control and 91 % of control

CN(C)c1ccc(N=C(C#N)C(=O)c2ccccc2)cc1
inactive: [6] 95 % of control | [7] 95 % of control | [8] 102 % of control

C[Si](C)(C)Cc1ccc(Cl)cc1
inactive: dose: 111.0 mg/kg/injection, schedule: Q01DX Z (ip), vehicle: saline 104 % of control | dose: 166.0 mg/kg/injection, schedule: Q01DX Z (ip), vehicle: saline 91 % of control | dose: 250.0 mg/kg/injection, schedule: Q01DX Z (ip), vehicle: saline 98 % of control

CCOC(=O)NC(NC(=O)OCC)C(Br)(Br)Br
inactive: dose: 25.0 mg/kg/injection, schedule: Q01DX001 (ip), vehicle: Klucel (hydroxypropylcellulose) (HPC) 112 % of control | [23] 104 % of control | dose: 50.0 mg/kg/injection, schedule: Q01DX001 (ip), vehicle: Klucel (hydroxypropylcellulose) (HPC) 112 % of control | [24] 106 % of control | dose: 100.0 mg/kg/injection, schedule: Q01DX001 (ip), vehicle: Klucel (hydroxypropylcellulose) (HPC) 108 % of control | [15] 104 % of control | dose: 200.0 mg/kg/injection, schedule: Q01DX001 (ip), vehicle: Klucel (hydroxypropylcellulose) (HPC) 116 % of control | [16] 102 % of control

O=[N+]([O-])c1ccc(N/N=C/CCc2ccccc2O)c([N+](=O)[O-])c1
inactive: [11] 112 % of control | [17] 98 % of control | [18] 93 % of control | [19] 98 % of control

OC(Cn1cnc2ccccc21)c1ccccc1 (stereo unspecified)
inactive: [20] 96 % of control | [21] 97 % of control | [22] 94 % of control

C=CCNC(=O)/C=C/C(=O)O
inactive: [3] 95 % of control | [9] 93 % of control

CN(C)C(=O)Nc1cccc(OC(=O)NC2CCCC2)c1
inactive: [6] 100 % of control | [7] 95 % of control | [8] 100 % of control

CCN(CC)CCOc1ccccc1C(C)C
inactive: dose: 20.0 mg/kg/injection, schedule: Q04DX003 (ip), vehicle: saline 118 % of control | dose: 40.0 mg/kg/injection, schedule: Q04DX003 (ip), vehicle: saline 97 % of control | dose: 80.0 mg/kg/injection, schedule: Q04DX003 (ip), vehicle: saline 94 % of control | [4] 101 % of control
